{
  "source": "patent US20130005568A1",
  "about": "“SAFENED HERBICIDAL MIXTURES” (E.I. DU PONT DE NEMOURS AND COMPANY, priority 2011, published 2013)",
  "key": {"[1]": {"test_system": "spring wheat", "test": "Test E: postemergence plant response rating", "format": "in vivo, Triticum aestivum L.", "settings": "spring wheat, postemergence, greenhouse, two weeks, 0-100 scale", "description": "(§1) For all of the following biological tests, plant response ratings were based on a 0-100 scale where zero is growth equivalent to that of untreated plants (no plant response) and 100 represents no additional growth occurring after herbicide treatment.\n(§2) Herbicide mixtures were formulated, dissolved/dispersed in water containing 0.25% non-ionic surfactant, sprayed postemergence to the crops: winter wheat (Triticum aestivum L.), spring wheat (Triticum aestivum L.), winter barley (Hordeum vulgare L.) and spring barley (Hordeum vulgare L.), and the weeds: blackgrass (Alopecurus myosuroides Huds.), lambsquarters (Chenopodium album L.) and pigweed (Amaranthus retroflexus L.). Treated plants were grown under greenhouse conditions for two weeks before visual evaluations of plant responses were recorded."}, "[2]": {"test_system": "winter wheat", "test": "Test E: postemergence plant response rating", "format": "in vivo, Triticum aestivum L.", "settings": "winter wheat, postemergence, greenhouse, two weeks, 0-100 scale", "description": "as §1, §2"}, "[3]": {"test_system": "spring barley", "test": "Test E: postemergence plant response rating", "format": "in vivo, Hordeum vulgare L.", "settings": "spring barley, postemergence, greenhouse, two weeks, 0-100 scale", "description": "as §1, §2"}, "[4]": {"test_system": "winter barley", "test": "Test E: postemergence plant response rating", "format": "in vivo, Hordeum vulgare L.", "settings": "winter barley, postemergence, greenhouse, two weeks, 0-100 scale", "description": "as §1, §2"}, "[5]": {"test_system": "blackgrass", "test": "Test E: postemergence plant response rating", "format": "in vivo, Alopecurus myosuroides Huds.", "settings": "blackgrass, postemergence, greenhouse, two weeks, 0-100 scale", "description": "as §1, §2"}, "[6]": {"test_system": "lambsquarters", "test": "Test E: postemergence plant response rating", "format": "in vivo, Chenopodium album L.", "settings": "lambsquarters, postemergence, greenhouse, two weeks, 0-100 scale", "description": "as §1, §2"}, "[7]": {"test_system": "pigweed", "test": "Test E: postemergence plant response rating", "format": "in vivo, Amaranthus retroflexus L.", "settings": "pigweed, postemergence, greenhouse, two weeks, 0-100 scale", "description": "as §1, §2"}, "[8]": {"test_system": "winter wheat", "test": "Test F: preemergence plant response rating", "format": "in vivo, Triticum aestivum L.", "settings": "winter wheat, preemergence, greenhouse, three weeks, 0-100 scale", "description": "as §1\n(§3) Herbicide mixtures were formulated, dissolved/dispersed in water, and sprayed preemergence to the crops: winter wheat (Triticum aestivum L.) and winter barley (Hordeum vulgare L.), and the weed: blackgrass (Alopecurus myosuroides Huds). Treated plants were grown under greenhouse conditions for three weeks before visual evaluations of plant responses were recorded."}, "[9]": {"test_system": "winter barley", "test": "Test F: preemergence plant response rating", "format": "in vivo, Hordeum vulgare L.", "settings": "winter barley, preemergence, greenhouse, three weeks, 0-100 scale", "description": "as §1, §3"}, "[10]": {"test_system": "blackgrass", "test": "Test F: preemergence plant response rating", "format": "in vivo, Alopecurus myosuroides Huds", "settings": "blackgrass, preemergence, greenhouse, three weeks, 0-100 scale", "description": "as §1, §3"}, "[11]": {"settings": "herbicide 10 g ai/ha + Compound 1 125 g ai/ha"}, "[12]": {"settings": "herbicide 20 g ai/ha + Compound 1 125 g ai/ha"}, "[13]": {"settings": "herbicide 32 g ai/ha + Compound 1 125 g ai/ha"}, "[14]": {"settings": "herbicide 64 g ai/ha + Compound 1 125 g ai/ha"}},
  "data": [
    {"smiles": "COC(=O)c1ccc(C(F)(F)F)nc1S(=O)(=O)NC(=O)Nc1nc(OC)cc(OC)n1", "note": "[Flupyrsulfuron-methyl-sodium, flupyrsulfuron-methyl-sodium]", "values": [
      {"measurement": "Observed Response, Herbicide mixture with Compound 1", "setting": "[1]; [11]", "result": 3},
      {"measurement": "Observed Response, Herbicide alone", "setting": "[1]; herbicide 10 g ai/ha", "result": 18},
      {"measurement": "Observed Response, Herbicide mixture with Compound 1", "setting": "[1]; [12]", "result": 0},
      {"measurement": "Observed Response, Herbicide alone", "setting": "[1]; herbicide 20 g ai/ha", "result": 22},
      {"measurement": "Observed Response, Herbicide mixture with Compound 1", "setting": "[2]; [11]", "result": 0},
      {"measurement": "Observed Response, Herbicide alone", "setting": "[2]; herbicide 10 g ai/ha", "result": 17},
      {"measurement": "Observed Response, Herbicide mixture with Compound 1", "setting": "[2]; [12]", "result": 0},
      {"measurement": "Observed Response, Herbicide alone", "setting": "[2]; herbicide 20 g ai/ha", "result": 18},
      {"measurement": "Observed Response, Herbicide mixture with Compound 1", "setting": "[3]; [11]", "result": 23},
      {"measurement": "Observed Response, Herbicide alone", "setting": "[3]; herbicide 10 g ai/ha", "result": 47},
      {"measurement": "Observed Response, Herbicide mixture with Compound 1", "setting": "[3]; [12]", "result": 43},
      {"measurement": "Observed Response, Herbicide alone", "setting": "[3]; herbicide 20 g ai/ha", "result": 53},
      {"measurement": "Observed Response, Herbicide mixture with Compound 1", "setting": "[4]; [11]", "result": 12},
      {"measurement": "Observed Response, Herbicide alone", "setting": "[4]; herbicide 10 g ai/ha", "result": 42},
      {"measurement": "Observed Response, Herbicide mixture with Compound 1", "setting": "[4]; [12]", "result": 27},
      {"measurement": "Observed Response, Herbicide alone", "setting": "[4]; herbicide 20 g ai/ha", "result": 42},
      {"measurement": "Observed Response, Herbicide mixture with Compound 1", "setting": "[5]; [11]", "result": 99},
      {"measurement": "Observed Response, Herbicide alone", "setting": "[5]; herbicide 10 g ai/ha", "result": 98},
      {"measurement": "Observed Response, Herbicide mixture with Compound 1", "setting": "[5]; [12]", "result": 99},
      {"measurement": "Observed Response, Herbicide alone", "setting": "[5]; herbicide 20 g ai/ha", "result": 99},
      {"measurement": "Observed Response, Herbicide mixture with Compound 1", "setting": "[6]; [11]", "result": 83},
      {"measurement": "Observed Response, Herbicide alone", "setting": "[6]; herbicide 10 g ai/ha", "result": 78},
      {"measurement": "Observed Response, Herbicide mixture with Compound 1", "setting": "[6]; [12]", "result": 87},
      {"measurement": "Observed Response, Herbicide alone", "setting": "[6]; herbicide 20 g ai/ha", "result": 87},
      {"measurement": "Observed Response, Herbicide mixture with Compound 1", "setting": "[7]; [11]", "result": 96},
      {"measurement": "Observed Response, Herbicide alone", "setting": "[7]; herbicide 10 g ai/ha", "result": 100},
      {"measurement": "Observed Response, Herbicide mixture with Compound 1", "setting": "[7]; [12]", "result": 97},
      {"measurement": "Observed Response, Herbicide alone", "setting": "[7]; herbicide 20 g ai/ha", "result": 99},
      {"measurement": "Observed Response, Herbicide mixture with Compound 1", "setting": "[8]; [13]", "result": 10},
      {"measurement": "Observed Response, Herbicide alone", "setting": "[8]; herbicide 32 g ai/ha", "result": 30},
      {"measurement": "Observed Response, Herbicide mixture with Compound 1", "setting": "[8]; [14]", "result": 33},
      {"measurement": "Observed Response, Herbicide alone", "setting": "[8]; herbicide 64 g ai/ha", "result": 40},
      {"measurement": "Observed Response, Herbicide mixture with Compound 1", "setting": "[9]; [13]", "result": 40},
      {"measurement": "Observed Response, Herbicide alone", "setting": "[9]; herbicide 32 g ai/ha", "result": 75},
      {"measurement": "Observed Response, Herbicide mixture with Compound 1", "setting": "[9]; [14]", "result": 35},
      {"measurement": "Observed Response, Herbicide alone", "setting": "[9]; herbicide 64 g ai/ha", "result": 90},
      {"measurement": "Observed Response, Herbicide mixture with Compound 1", "setting": "[10]; [13]", "result": 90},
      {"measurement": "Observed Response, Herbicide alone", "setting": "[10]; herbicide 32 g ai/ha", "result": 95},
      {"measurement": "Observed Response, Herbicide mixture with Compound 1", "setting": "[10]; [14]", "result": 97},
      {"measurement": "Observed Response, Herbicide alone", "setting": "[10]; herbicide 64 g ai/ha", "result": 95}
    ]}
  ]
}
